From patent US20250206713A1, “2-[(2-OXO-4-PHENYL-2H-CHROMEN-7-YL)OXY] PROPANAMIDO DERIVATIVES” (LUNELLA BIOTECH, INC., priority 2022, published 2025)
“Also recorded” adds a separate entry of the source. Read-outs that look alike come from different tables or passages of the source.

Tests used:
adherent MCF7 cells [1] = assay: Metabolic flux analysis, mitochondrial oxygen consumption rate (Seahorse XFe96); assay type: cell-based, human; conditions: 2.5 μM, versus vehicle-alone control
Experimental: (§1) FIGS. 11A-D show mitochondrial respiration, basal respiration, maximal respiration, and ATP production results for metabolic flux analysis of adherent MCF7 cells were treated with Compound [III] at 2.5 μM. After treatment, the mitochondrial oxygen consumption rate (OCR) was measured using the Seahorse XFe96 analyzer. Data is expressed as percentage of OCR versus control.

adherent MCF7 cells [2] = assay: Glycolytic function analysis (ECAR); assay type: cell-based, human; conditions: 2.5 μM, versus control
Experimental: as §1
FIGS. 12A-D show the results of glycolytic function analysis for treatment with Compound [III] at 2.5 μM. Glycolytic function, basal glycolysis, induced glycolysis, and compensatory glycolysis, respectively. […] All data was normalized for cell number. Statistical analysis was conducted using one-way ANOVA.

BJ1-hTERT cells [3] = assay: SRB assay (cell viability) on BJ1-hTERT cells; conditions: 72 hours
Experimental: (§3) The human breast adenocarcinoma cell line MCF-7 was from the American Type Culture Collection (ATCC). hTERT-BJ1 cells were from Clontech, Inc. MCF-7 and hTERT-BJ 1 cells were grown in DMEM supplemented with 10% fetal bovine serum, GlutaMAX and 1% penicillin-streptomycin and incubated at 37 C in a humidified 5% C02 incubator. The medium was changed 2-3 times/week.
(§4) The inventors initially used the sulphorhodamine (SRB) assay, which is based on the measurement of cellular protein content. After treatment for 72 hours in 96-well plates, cells were fixed with 10% trichloroacetic acid (TCA) for 1 hour in the cold room, and were dried overnight at room temperature. Then, cells were incubated with SRB for 15 min, washed twice with 1% acetic acid, and air dried for at least 1 hour. Finally, the protein-bound dye was dissolved in a 10 mM Tris, pH 8.8 solution and read using the plate reader at 540-nm. […] Prominent cytotoxicity was defined as fewer than 30% of cells still on the plate.

chick embryo = assay: CAM assay, chick embryo toxicity; assay type: in vivo, chicken; conditions: chick embryos; for Alive / Dead: of 18 total
Experimental: (§2) Further evaluation of both efficacy and toxicity was performed on human breast tumors initiated from the MDA-MB-231 cell line in chicken embryos using the chick chorioallantoic membrane assay (“CAM Assay”) available from Inovotion (Cambridge, Massachusetts). […] An inoculum of 1×10^6 MDA-MB-231 cells was added onto the CAM of each egg (day E9) and then eggs were randomized into groups. On day E10, tumors were detectable and they were then treated daily for 8 days with vehicle alone (1% DMSO in PBS), or a compound of the present approach. After 8 days of drug administration, on day E18 all tumors were weighed, and the lower CAM was collected to evaluate the number of metastatic cells, as analyzed by qPCR with specific primers for Human Alu sequences.

[4] = system: MDA-MB-231 cancer cell metastasis; assay: CAM assay, metastatic invasion (qPCR for Human Alu sequences in lower CAM); assay type: in vivo; conditions: MDA-MB-231, lower CAM, treated daily for 8 days, different concentrations
Experimental: as §2

[5] = system: human breast tumors initiated from the MDA-MB-231 cell line in chicken embryos; assay: CAM assay, tumor growth; assay type: in vivo; conditions: MDA-MB-231 tumors, treated daily for 8 days, different concentrations
Experimental: as §2

MCF-7 cells [6] = assay: 3D anchorage independent growth assay (mammosphere formation assay); assay type: cell-based, human; conditions: for inhibition of MCF-7 cells across tested concentrations (mammosphere formation): in words, concentration range as given in the value; for potency relative to Compound [I], MCF-7 mammosphere formation: times / fold versus Compound [I]; for IC50: MCF-7 mammosphere formation, approximate, read from figure, read-out: IC50 against MCF-7 cells (mammosphere formation)
Experimental: The medium was changed 2-3 times/week.
3D Anchorage Independent Growth Assay: This assay is also referred to as the mammosphere formation assay. A single-cell suspension was prepared using enzymatic, and manual disaggregation (25-g needle). Then, cells were plated at a density of 500 cells/cm2 in mammosphere medium (DMEM-F12+1X B-27 Plus Supplement+20 ng/ml EGF+Pen/Strep) under non-adherent conditions, in culture dishes pre-coated with (2-hydroxyethylmethacrylate) (poly-HEMA, Sigma Aldrich Inc.), called “mammosphere plates.” Cells were grown for 5 days and maintained in a humidified incubator at 37° C. After 5 days of culture, 3D-mammospheres >50 μm were counted using an eye piece (“graticule”), and the percentage of cells plated which formed spheres was calculated and is referred to as percent mammosphere formation, and was normalized to one (1=100% MFE). 3D mammosphere formation efficiency (MFE) was analyzed in both the ATP-low and ATP-high sub-populations of cells. All 3D mammosphere experiments were performed in triplicate, at least 3 times independently.

MCF-7 cells [7] = assay: SRB assay (cell viability) on MCF-7 cells; conditions: for concentration at which cytotoxicity towards MCF-7 cells starts (SRB assay): 72 hours; for cytotoxicity towards MCF-7 cells (SRB assay): in words
Experimental: as §3, §4

BJ1-hTERT cells [8] = system: BJ1-hTERT cells
Experimental: as §3, §4

MCF-7 cells [9] = system: MCF-7 cells
Experimental: as §3, §4

## tert-Butyl-N-[3-chloro-4-[7-[(1R)-2-[[2-[2-(dimethylamino)ethylamino]-2-oxo-ethyl]-ethyl-amino]-1-methyl-2-oxo-ethoxy]-2-oxo-chromen-4-yl]phenyl]carbamate [Compound [III]]
Adherent MCF7 cells [1]
  ATP production levels: significantly inhibited
  basal OCR (basal respiration): significantly inhibited
  maximal OCR (maximal respiration): significantly inhibited
Adherent MCF7 cells [2]
  ECAR levels (glycolysis): largely comparable between the control and the demonstrative compound; also recorded: little or no effects on glycolysis
BJ1-hTERT cells [3]
  concentration at which cytotoxicity towards BJ1-hTERT cells starts (SRB assay): ≥ 10 µM
Chick embryo; 100 μM
  % Alive: 83.33%
  % Dead: 16.67%
  Alive: 15
  Dead: 3
Chick embryo; 250 μM
  % Alive: 100%
  % Dead: 0%
  Alive: 18
  Dead: 0
Chick embryo; 500 μM
  % Alive: 94.44%
  % Dead: 5.56%
  Alive: 17
  Dead: 1
Chick embryo; in words
  toxicity assessment (CAM assay): non-toxic towards normal cells
[4]
  metastatic invasion (CAM assay): dose-dependent reduction in metastasis
[5]
  tumor growth (CAM assay): dose-dependent reduction in tumor growth
MCF-7 cells [6]
  inhibition of MCF-7 cells across tested concentrations (mammosphere formation): dose-dependent inhibition of MCF-7 cells at all tested concentrations, ranging from 1 μM to 10 μM
  potency relative to Compound [I], MCF-7 mammosphere formation: twenty-fold improvement
MCF-7 cells [7]
  concentration at which cytotoxicity towards MCF-7 cells starts (SRB assay): ≥ 10 µM

## CCCCCCCCCCCCCC(=O)Nc1cc(F)ccc1-c1cc(=O)oc2cc(O[C@H](C)C(=O)N(CC)C(=O)NCCCN(C)C)ccc12 [Compound [IV], N-[2-[7-[(1R)-2-[3-(Dimethylamino)propylcarbamoyl-ethyl-amino]-1-methyl-2-oxo-ethoxy]-2-oxo-chromen-4-yl]-5-fluoro-phenyl]tetradecanamide]
MCF-7 cells [6]; Homo sapiens, MCF7, at 2.5 μM
  inhibition at 2.5 µM: > 50%
MCF-7 cells [6]; at 10 μM
  inhibition of MCF-7 cells (mammosphere formation): near complete inhibition
MCF-7 cells [6]
  inhibition of MCF-7 cells across tested concentrations (mammosphere formation): dose-dependent inhibition of MCF-7 cells at all tested concentrations, ranging from 1 μM to 10 μM
MCF-7 cells [7]
  concentration at which cytotoxicity towards MCF-7 cells starts (SRB assay): ≥ 5 µM

## CCCCCCCCCCCCCC(=O)Nc1ccc(-c2cc(=O)oc3cc(O[C@H](C)C(=O)N4CCC[C@H](C(=O)O)C4)ccc23)c(Cl)c1 [Compound [II], (3S)-1-[(2R)-2-[4-[2-Chloro-4-(tetradecanoylamino)phenyl]-2-oxo-chromen-7-yl]oxypropanoyl]piperidine-3-carboxylic acid]
BJ1-hTERT cells [3]
  concentration at which cytotoxicity towards BJ1-hTERT cells starts (SRB assay): ≥ 50 µM
MCF-7 cells [6]; Homo sapiens, MCF7
  IC50: ~5 µM
  inhibition at 100 µM: 100%
MCF-7 cells [6]; Homo sapiens, MCF7, at 10 μM
  inhibition at 10 µM: > 50%
MCF-7 cells [6]
  inhibition of MCF-7 cells across tested concentrations (mammosphere formation): dose-dependent inhibition of MCF-7 cells at all tested concentrations, ranging from 0.1 μM to 100 μM
  potency relative to Compound [I], MCF-7 mammosphere formation: 10
MCF-7 cells [7]
  concentration at which cytotoxicity towards MCF-7 cells starts (SRB assay): ≥ 50 µM

## CCCCCCCCCCCCCC(=O)Nc1cc(F)ccc1-c1cc(=O)oc2cc(O[C@H](C)C(=O)O)ccc12 [Compound [VII], (2R)-2-[4-[4-Fluoro-2-(tetradecanoylamino)phenyl]-2-oxo-chromen-7-yl]oxypropanoic acid]
MCF-7 cells [6]; Homo sapiens, MCF7, at 1 μM
  inhibition at 1 µM: > 50%
MCF-7 cells [6]; Homo sapiens, MCF7
  inhibition at 100 µM: 100%
MCF-7 cells [6]
  inhibition of MCF-7 cells across tested concentrations (mammosphere formation): inhibitory activity can be seen at all tested concentrations, from 1 μM to 100 μM
MCF-7 cells [7]
  cytotoxicity towards MCF-7 cells (SRB assay): little toxicity across the tested concentrations below 100 μM

## C[C@@H](Oc1ccc2c(-c3ccc(F)cc3Cl)cc(=O)oc2c1)C(=O)N1CCC[C@H](C(=O)O)C1 [Compound [I], 3-piperidinecarboxylic acid, 1-[(2R)-2-[[4-(2-chloro-4-fluorophenyl)-2-oxo-2H-1-benzopyran-7-yl]oxy]-1-oxopropyl]-, (3S)-, reference compound]
BJ1-hTERT cells [8]
  cytotoxicity towards BJ1-hTERT cells (SRB assay): did not exhibit cytotoxicity
MCF-7 cells [6]; Homo sapiens, MCF7
  IC50: ~50 µM
  inhibition at 100 µM: > 50%
MCF-7 cells [6]; at 5 μM
  inhibition of MCF-7 cells (mammosphere formation): showed inhibition
MCF-7 cells [9]
  cytotoxicity towards MCF-7 cells (SRB assay): did not exhibit cytotoxicity

## CCCCCCCCCCCCCC(=O)Nc1ccc(-c2cc(=O)oc3cc(O[C@H](C)C(=O)O)ccc23)c(Cl)c1 [Compound [VI], (2R)-2-[4-[2-chloro-4-(tetradecanoylamino)phenyl]-2-oxo-chromen-7-yl]oxypropanoic acid]
MCF-7 cells [6]; Homo sapiens, MCF7, at 10 μM
  inhibition at 10 µM: > 50%
MCF-7 cells [6]
  inhibition of MCF-7 cells across tested concentrations (mammosphere formation): inhibitory activity can be seen at all tested concentrations, from 1 μM to 100 μM
MCF-7 cells [7]
  cytotoxicity towards MCF-7 cells (SRB assay): little toxicity across the tested concentrations

## CCCCCCCCCCCCCC(=O)Nc1ccc(-c2cc(=O)oc3cc(O[C@H](C)C(=O)N(CC)CC(=O)NCCN(C)C)ccc23)c(Cl)c1 [Compound [V], N-[3-Chloro-4-[7-[(1R)-2-[[2-[2-(dimethylamino)ethylamino]-2-oxo-ethyl]-ethyl-amino]-1-methyl-2-oxo-ethoxy]-2-oxo-chromen-4-yl]phenyl]tetradecanamide]
BJ1-hTERT cells [3]
  concentration at which cytotoxicity towards BJ1-hTERT cells starts (SRB assay): ≥ 5 µM
MCF-7 cells [6]; Homo sapiens, MCF7, at 0.5 μM
  inhibition at 0.5 µM: > 50%
MCF-7 cells [6]; Homo sapiens, MCF7, at 5 μM
  inhibition at 5 µM: 100%
MCF-7 cells [6]
  inhibition of MCF-7 cells across tested concentrations (mammosphere formation): effectively inhibited MCF-7 cells at all tested concentrations, ranging from 0.5 μM to 10 μM
MCF-7 cells [7]
  concentration at which cytotoxicity towards MCF-7 cells starts (SRB assay): ≥ 5 µM
